Square brackets hold non-standard residues; d marks the D form. Peptide text beside a SMILES is read from it. * marks the point of attachment. X3 = COc1cc([C@@H]2c3cc4c(cc3[C@@H](Nc3ccc(NC(=O)CCN5C(=O)CC(*)C5=O)cc3)[C@H]3COC(=O)[C@H]23)OCO4)cc(O)c1O; Biotin = O=C1N[C@H]2[C@H](CS[C@H]2CCCCC(=O)*)N1; βAla = NCCC(=O)O
What was measured:
[1] = test system: purified recombinant human topoisomerase II; assay: Topoisomerase II inhibition assay (cleavage and relaxation of plasmid DNA); format: biochemical; design: key: I denotes inhibition of relaxation of supercoiled plasmid by topoisomerase II; C denotes accumulation of topoisomerase II reaction intermediate; conditions: test compound at 1 mM, 100 μM, or 10 μM final concentration; cleavage and relaxation assays
Experimental: Topoisomerase II assay—Plasmid DNA (0.3 μg) was incubated at 37° C. with 4 units of purified recombinant human topoisomerase II in cleavage buffer (30 mM Tris.HCl, pH 7.6, 60 mM NaCl, 3 mM ATP, 15 mM mercaptoethanol, 8 mM MgCl2) with or without the addition of test compound (at 1 mM, 100 μM, or 10 μM final concentration). Reactions were stopped by the immediate addition of SDS (1% w/v final). Samples were treated with proteinase K (30 min at 37° C.) and extracted twice with an equal volume of 42:1 CHCl3/i-amyl alcohol. After adding loading dye samples were loaded to a 4×TAE, 1% agarose gel containing […] ethidium bromide and electrophoresed for 16-24 h. Topoisomerase II inhibition was judged by the production of linear plasmid DNA, representing trapped cleavage intermediate, and by the ratio of substrate (spercoiled DNA) to product (relaxed DNA). A relaxation assay was performed identically, except that the reaction buffer was optimised for the detection of catalysis rather than cleavage i.e. only 2 units of enzyme were used per sample. The reaction buffer was 50 mM Tris.HCl, pH 8, 120 mM KCl, 0.5 mM ATP, 0.5 mM dithiothreitol, 10 mM MgCl2. Topoisomerase II inhibition was judged by the ratio of substrate (supercoiled DNA) to product (relaxed DNA).

[2] = Maximum tolerated dose by iv administration in mice; conditions: mouse, in vivo
live cells = assay: Visualisation of cell internalisation (biotin-avidin and direct fluorescein probe); format: cell-based; conditions: FIG. 4, visualisation in cells
Experimental: This assay permitted the study and measurement of cell internalisation without the possibility of observing artefacts emanating from the cell manipulations necessary with the biotinylated peptides. […] (squares when t=10 mins, diamonds when t=60 mins). […] Nuceolar accumulation may be due to non-specific binding of the positively charged peptide to DNA.

HaCaT cells = assay: Peptide internalisation assay (biotinylated peptides, alkaline phosphatase-streptavidin detection); format: cell-based, human; conditions: for degree of internalisation / membrane translocation relative to control peptide 1: FIG. 2, one peptide concentration, same pattern regardless of concentration; for internalised into cells / active in the cell internalisation assay (qualitative): assay of section 1.3
Experimental: HaCaT cells (immortalised ‘normal’ human […] cell line) were seeded into 96-well plates at 50,000 cells per well in medium (DMEM) with 10% foetal calf serum and antibiotics. After an overnight incubation, peptides were prepared as dilution series in cell medium and were added to the cells. At the end of the incubation period (usually 10 and 60 min), the cells were rinsed three times with PBS and fixed for 20 min at −20° C. in EtOH/AcOH (95:5). After the fixation, the cells were made permeable by treatment for 10 min with PBS containing 3% Tween-20. Endogenous alkaline phosphatase activity was neutralised by incubation at 65° C. for 60 min. Cells were incubated for 30 min at room temperature with alkaline phosphatase-streptavidin (Pierce Chemical Co., Rockford, Ill., USA) in 0.1% BSA in PBS and washed extensively with PBS. Freshly prepared substrate solution (1 mg/mL p-nitrophenyl phosphate disodium (Pierce Chemical Co.) in 10 mM diethanolamine (pH 9.5) containing 0.5 mM MgCl, was added to each well and incubated until sufficient colour had developed (approximately 30 min.). The enzymatic reaction was stopped by adding 50 μL 2 M aq NaOH to each well. Alkaline phosphatase activity was measured spectrophotometrically at 405 nm.

COc1cc(C2c3cc4c(cc3C(Nc3ccc(N)cc3)C3COC(=O)C23)OCO4)cc(OC)c1O (centres unmarked) [4′-Demethyl-4-(4″-aminoanilino)epipodophyllotoxin, reference compound]
Activity observed (topoisomerase II) [1]: I

COc1cc([C@@H]2c3cc4c(cc3[C@@H](Nc3ccc(NC(=O)CCN5C(=O)CC(SC[C@H](N)C(=O)NCCC(=O)N[C@@H](CCCNC(=N)N)C(=O)N[C@@H](CCCNC(=N)N)C(=O)N[C@@H](CCSC)C(=O)N[C@@H](CCCCN)C(=O)N[C@@H](Cc6c[nH]c7ccccc67)C(=O)N[C@@H](CCCCN)C(=O)N[C@@H](CCCCN)C(N)=O)C5=O)cc3)[C@H]3COC(=O)[C@H]23)OCO4)cc(O)c1O (stereo partly drawn) [4′-Demethyl-4-[4″-aminoanilino-(succinimidopropionoyl)-(H-Cys-βAla-Arg-Arg-Met-Lys-Trp-Lys-Lys-NH2)]epipodophyllotoxin] (H-C(X3)[βAla]RRMKWKK-NH2)
Activity observed (topoisomerase II) [1]: I

CC[C@H](C)[C@H](NC(=O)[C@H](CCCCN)NC(=O)[C@@H](NC(=O)[C@H](CCC(N)=O)NC(=O)[C@H](CCCNC(=N)N)NC(=O)[C@@H](N)CSC1CC(=O)N(CCC(=O)O[C@H]2c3cc4c(cc3[C@@H](c3cc(OC)c(OC)c(OC)c3)[C@H]3C(=O)OC[C@@H]32)OCO4)C1=O)[C@@H](C)CC)C(=O)N[C@@H](Cc1c[nH]c2ccccc12)C(=O)N[C@@H](Cc1ccccc1)C(=O)N[C@@H](CCC(N)=O)C(=O)N[C@@H](CC(N)=O)C(=O)N[C@@H](CCCNC(=N)N)C(=O)N[C@@H](CCCNC(=N)N)C(=O)N[C@@H](CCSC)C(=O)N[C@@H](CCCCN)C(=O)N[C@@H](Cc1c[nH]c2ccccc12)C(=O)N[C@@H](CCCCN)C(=O)N[C@@H](CCCCN)C(=O)NCC(=O)N[C@@H](CS)C(=O)NCC(N)=O (some centres unmarked) [podophyllotoxin, 16-mer]
MTD [2]: ~40 mg/kg

Biotinyl-βAla-Arg-Gln-Ile-Lys-Ile-Trp-Phe-Gln-Asn-Arg-Arg-Met-Lys-Trp-Lys-Lys-NH2 (ARQIKIWFQNRRMKWKK; N-terminal biotin, beta-residue; C-terminal amide; MOD_RES (1) bAla) [Peptide 1]
subcellular localisation after internalisation (live cells): localises predominantly to the cell nucleus and accumulates in the nucleoli, with lesser concentration in the cytosol

Biotinyl-βAla-Arg-Met-Lys-Trp-Lys-Lys-NH2 (Biotin-[βAla]RMKWKK-NH2; SMILES CSCC[C@H](NC(=O)[C@H](CCCNC(=N)N)NC(=O)CCNC(=O)CCCC[C@@H]1SC[C@@H]2NC(=O)N[C@@H]21)C(=O)N[C@@H](CCCCN)C(=O)N[C@@H](Cc1c[nH]c2ccccc12)C(=O)N[C@@H](CCCCN)C(=O)N[C@@H](CCCCN)C(N)=O) [Peptide 20]
degree of internalisation / membrane translocation relative to control peptide 1 (HaCaT cells): severe drop

Biotinyl-βAla-Ile-Trp-Phe-Gln-Asn-Arg-Arg-Met-Lys-Trp-Lys-Lys-NH2 (Biotin-[βAla]IWFQNRRMKWKK-NH2; SMILES CC[C@H](C)[C@H](NC(=O)CCNC(=O)CCCC[C@@H]1SC[C@@H]2NC(=O)N[C@@H]21)C(=O)N[C@@H](Cc1c[nH]c2ccccc12)C(=O)N[C@@H](Cc1ccccc1)C(=O)N[C@@H](CCC(N)=O)C(=O)N[C@@H](CC(N)=O)C(=O)N[C@@H](CCCNC(=N)N)C(=O)N[C@@H](CCCNC(=N)N)C(=O)N[C@@H](CCSC)C(=O)N[C@@H](CCCCN)C(=O)N[C@@H](Cc1c[nH]c2ccccc12)C(=O)N[C@@H](CCCCN)C(=O)N[C@@H](CCCCN)C(N)=O) [Peptide 14]
degree of internalisation / membrane translocation relative to control peptide 1 (HaCaT cells): only about half of the original signal was left

Biotinyl-βAla-Trp-Phe-Gln-Asn-Arg-Arg-Met-Lys-Trp-Lys-Lys-NH2 (Biotin-[βAla]WFQNRRMKWKK-NH2; SMILES CSCC[C@H](NC(=O)[C@H](CCCNC(=N)N)NC(=O)[C@H](CCCNC(=N)N)NC(=O)[C@H](CC(N)=O)NC(=O)[C@H](CCC(N)=O)NC(=O)[C@H](Cc1ccccc1)NC(=O)[C@H](Cc1c[nH]c2ccccc12)NC(=O)CCNC(=O)CCCC[C@@H]1SC[C@@H]2NC(=O)N[C@@H]21)C(=O)N[C@@H](CCCCN)C(=O)N[C@@H](Cc1c[nH]c2ccccc12)C(=O)N[C@@H](CCCCN)C(=O)N[C@@H](CCCCN)C(N)=O) [Peptide 15]
degree of internalisation / membrane translocation relative to control peptide 1 (HaCaT cells): only about half of the original signal was left

KKWKORR
internalised into cells / active in the cell internalisation assay (qualitative) (HaCaT cells): internalised into cells

KRMKWKK
internalised into cells / active in the cell internalisation assay (qualitative) (HaCaT cells): internalised into cells

NRRMKWKK
internalised into cells / active in the cell internalisation assay (qualitative) (HaCaT cells): internalised into cells

QNRRMKWKK
internalised into cells / active in the cell internalisation assay (qualitative) (HaCaT cells): internalised into cells

RKMKWKK
internalised into cells / active in the cell internalisation assay (qualitative) (HaCaT cells): internalised into cells

RORKWKK
internalised into cells / active in the cell internalisation assay (qualitative) (HaCaT cells): internalised into cells

RREKWKK
internalised into cells / active in the cell internalisation assay (qualitative) (HaCaT cells): internalised into cells

RRMKKWK
internalised into cells / active in the cell internalisation assay (qualitative) (HaCaT cells): internalised into cells

RRMKQKK
internalised into cells / active in the cell internalisation assay (qualitative) (HaCaT cells): internalised into cells

RRMKWFK
internalised into cells / active in the cell internalisation assay (qualitative) (HaCaT cells): internalised into cells

RRMKWKK
internalised into cells / active in the cell internalisation assay (qualitative) (HaCaT cells): internalised into cells

RRMWKKK
internalised into cells / active in the cell internalisation assay (qualitative) (HaCaT cells): internalised into cells

RROKKWK
internalised into cells / active in the cell internalisation assay (qualitative) (HaCaT cells): internalised into cells

RROKWKK [O = norleucine]
internalised into cells / active in the cell internalisation assay (qualitative) (HaCaT cells): internalised into cells

RROWKKK
internalised into cells / active in the cell internalisation assay (qualitative) (HaCaT cells): internalised into cells

RRQKWKK
internalised into cells / active in the cell internalisation assay (qualitative) (HaCaT cells): internalised into cells

Reference: patent US7101967B2, “Transport vectors” (priority 1998, dated 2006)
